Measured values taken from publication PMC11310598, “Gestodene, a novel positive allosteric modulator of PAR1, enhances PAR1-mediated human platelet aggregation” (Frontiers in Pharmacology, 2024).

Biological target: T1, Protease-activated receptor 1 (PAR1) (Homo sapiens, UniProt P25116)
T1 construct: gene F2R; endogenous PAR1 in HT29 cells
T1 sequence (P25116 42-425): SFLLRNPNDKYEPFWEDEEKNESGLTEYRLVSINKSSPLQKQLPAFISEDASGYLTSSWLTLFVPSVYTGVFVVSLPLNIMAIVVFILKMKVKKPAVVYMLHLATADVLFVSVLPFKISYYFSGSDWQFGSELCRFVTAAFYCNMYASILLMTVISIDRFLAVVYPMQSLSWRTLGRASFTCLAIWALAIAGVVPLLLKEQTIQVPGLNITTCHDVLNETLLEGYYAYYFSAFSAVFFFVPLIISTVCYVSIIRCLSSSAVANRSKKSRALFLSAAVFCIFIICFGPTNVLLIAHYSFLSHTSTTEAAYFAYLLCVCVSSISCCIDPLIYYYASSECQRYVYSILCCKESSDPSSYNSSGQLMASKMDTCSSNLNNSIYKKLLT
Assay: Fluo-4 intracellular calcium, potentiation of thrombin or PAR1-AP response; blocked by vorapaxar
Assay type: cell-based

C#C[C@]1(O)C=C[C@H]2[C@@H]3CCC4=CC(=O)CC[C@@H]4[C@H]3CC[C@@]21CC [gestodene]
EC50: 4.54 ± 0.27 µM
